US20160228446A1, “Combination Drug Therapy” (GLAXOSMITHKLINE LLC, priority 2013, published 2016)

Experiments:
LNCaP cells = experiment: Luminescent caspase 3/7 assay; type: cell-based; conditions: single agent 5 uM, five days, normalized to ATP signal
Method: Caspase 3/7 activity was normalized and plotted as a percentage of the untreated control samples. Data for 2 independent experiments (N=1, N=2) is shown and represents mean±std dev from duplicate treatments. Tumor cells were seeded in 96-well white tissue culture plates in 100 μL growth media (media with 10% FBS) or CSS media (media with 10% charcoal stripped fetal bovine serum). LNCaP cells were seeded at a density of 1,000 cells per well. Approximately 24 hr after plating, duplicate or triplicate plates of cells were treated with indicated compounds for both luminescent caspase-3/7 and CTG readings. At the end of the 5 days of incubations, half of the plates were lysed and caspase-3/7 activity was measured using the Caspase-Glo® 3/7 Assay (Promega) according to the manufacturer's protocol. Caspase-Glo reagent was added to each plate, incubated for at least 45 minutes, and luminescent signal was read on the EnVision Multilabel Plate Reader with a 0.1 sec integration time. The remaining plates were lysed and ATP levels were measured using the CTG assay. The caspase-3/7 signal was normalized to the ATP signal. The normalized values were expressed as a percentage of the control wells.

[1] = test system: LNCaP prostate cancer cells; experiment: Cell proliferation assay (CellTiter-Glo, total cellular ATP); type: cell-based; conditions: single agent; charcoal-stripped serum, 0.1 nM R1881, 7 days; percentage of DMSO-treated control
Method: Cells were grown in charcoal-stripped serum to deplete potential androgen from serum. Under these conditions, cell growth is dependent on exogenous androgen (e.g., R1881).
Androgen-dependent prostate cancer cell line, LNCaP, were grown in RPMI 1640 culture medium supplemented with 10% charcoal-stripped fetal bovine serum for 24 hours in 96-well tissue culture plates at a density of 1,000 cells per well. Cells were treated with various concentrations of compounds A or B alone and in combination in the presence of synthetic androgen (R1881, Sigma-Aldrich, St. Louis, Mo.). After 7 days, total cellular ATP was measured using the CellTiter-Glo Luminescent Cell Viability Assay (Promega, Madison, Wis.) on an EnVision plate reader. Background counts from wells containing no cells were subtracted and the data is presented as a percentage of the DMSO-treated control cells.

phospho-AKT = experiment: Immunoblot assay, AKT phosphorylation; type: cell-based; conditions: LNCaP cells, Compound B 3 or 10 uM, 0.1 nM R1881, six hours
Method: LNCaP cells were treated with Compound B (3 or 10 uM) alone or in presence of compound A (3 uM), all in presence of 0.1 nM synthetic androgen (R1881).
LNCaP cells were grown in RPMI 1640 culture medium supplemented with 10% charcoal-stripped fetal bovine serum for 48 hours in 6-well tissue culture plates at a density of 500,000 cells per well. Cells were treated with the indicated compounds for six hours, washed with PBS, and whole cell lysates were prepared in RIPA buffer (Teknova, Hollister, Calif.). Cell lysates were clarified by centrifugation at 20,000 relative centrifugal force, 4° C., and protein was quantified using the BCA Protein Assay Kit (Pierce, Rockford, Ill.). Equal amounts of protein lysates were separated by SDS-PAGE using a 4-12% Bis-Tris polyacrylamide gel (Life Technologies) and transferred to a nitrocellulose membrane and incubated with antibodies against total and phospho-AKT, phospho-PRAS40, total and phospho-S6, androgen receptor, and FKBP5. Following incubation with primary antibody, blots were washed and incubated with IRDye-800 anti-mouse or IRDye-680 anti-rabbit antibodies for 1 h. Following thorough washing, blots were analyzed using an infrared imaging system (LI-COR).

phospho-S6 = experiment: Immunoblot assay, phospho-S6; type: cell-based; conditions: LNCaP cells, Compound B 3 or 10 uM alone or with compound A 3 uM, 0.1 nM R1881, six hours
androgen receptor = androgen receptor (Homo sapiens, UniProt P10275); conditions: cited from earlier work
[2] = test system: prostate cancer xenograft models; conditions: in vivo; cited from earlier work

androgen receptor, sequence (P10275 whole entry, species assumed): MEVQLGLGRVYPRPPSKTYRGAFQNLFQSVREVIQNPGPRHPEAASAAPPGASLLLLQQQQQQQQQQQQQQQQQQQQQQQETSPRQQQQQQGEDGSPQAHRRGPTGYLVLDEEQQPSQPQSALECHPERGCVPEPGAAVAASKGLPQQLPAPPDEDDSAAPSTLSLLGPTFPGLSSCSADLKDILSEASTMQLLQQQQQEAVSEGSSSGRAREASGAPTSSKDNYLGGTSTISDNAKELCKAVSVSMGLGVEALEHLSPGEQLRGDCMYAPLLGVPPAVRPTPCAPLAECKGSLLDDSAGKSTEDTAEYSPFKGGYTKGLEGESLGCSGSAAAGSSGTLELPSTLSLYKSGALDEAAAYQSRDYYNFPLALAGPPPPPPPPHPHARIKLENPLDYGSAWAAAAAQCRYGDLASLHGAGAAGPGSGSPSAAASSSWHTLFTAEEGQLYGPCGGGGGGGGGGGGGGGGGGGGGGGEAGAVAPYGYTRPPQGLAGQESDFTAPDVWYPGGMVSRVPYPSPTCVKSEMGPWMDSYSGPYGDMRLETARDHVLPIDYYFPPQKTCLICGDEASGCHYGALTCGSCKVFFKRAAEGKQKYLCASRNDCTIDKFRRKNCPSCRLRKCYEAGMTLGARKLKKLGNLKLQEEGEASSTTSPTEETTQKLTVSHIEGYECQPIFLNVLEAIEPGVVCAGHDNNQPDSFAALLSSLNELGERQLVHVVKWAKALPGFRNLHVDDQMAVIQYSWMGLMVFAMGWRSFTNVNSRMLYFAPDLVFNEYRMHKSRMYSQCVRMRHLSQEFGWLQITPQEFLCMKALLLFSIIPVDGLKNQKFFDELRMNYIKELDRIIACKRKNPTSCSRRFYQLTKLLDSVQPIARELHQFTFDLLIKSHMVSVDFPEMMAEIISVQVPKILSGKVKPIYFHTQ

For `CNC(=O)c1ccc(N2C(=S)N(c3ccc(C#N)c(C(F)(F)F)c3)C(=O)C2(C)C)cc1F` [Compound A, 4-(3-(4-Cyano-3-(trifluoromethyl)phenyl)-5,5-dimethyl-4-oxo-2-thioxoimidazolidin-1-yl)-2-fluoro-N-methylbenzamide], the “induction of caspase 3/7 activity” value (LNCaP cells) was “minimal induction” and the LNCaP cell growth [1] was “inhibited”.

With `Cc1c(Cn2c(C)nc3c(C(=O)O)cc(N4CCOCC4)cc32)cccc1C(F)(F)F` [Compound B, 2-methyl-1-{[2-methyl-3-(trifluoromethyl)phenyl]methyl}-6-(4-morpholinyl)-1H-benzimidazole-4-carboxylic acid] the “induction of caspase 3/7 activity” value (LNCaP cells) was “minimal induction”, the LNCaP cell growth [1] was “inhibited the growth” and the AKT phosphorylation (phospho-AKT) was “inhibited AKT phosphorylation”. The phospho-S6 (phospho-S6) was “inhibition of phospho-S6”.

For `CC(O)c1cc(C(=O)N[C@@H](C)Cn2ccc(-c3ccc(C#N)c(Cl)c3)n2)[nH]n1` (some centres unmarked) [ODM-201], the “affinity for the androgen receptor” value (androgen receptor) is given as “high affinity” and the “anti-proliferative activity in prostate cancer xenograft models” value [2] is given as “anti-proliferative activity”.
